Measured values: patent publication EP4790066A1, “GLP-1R/GIPR/GCGR TRIPLE AGONIST ANALOGUE AND USE THEREOF” (Shenzhen Bay Laboratory, priority 2023, dated 2025)
*1 amine or outer side, *2 acyl side, *3 side chain or, on linkers, in order; H or OH if unused. Where a SMILES comes first, the peptide text is derived from it. Bridges are numbered along the chain shown (N, C = ends). [ ]: non-standard residue; d: D form. X1 = O=C(O)CCCCCCCCCCCCCCCCCCC(=O)N[C@@H](CCCCNC(=O)COCCOCCNC(=O)COCCOCCNC(=O)CCC(=O)N(CCNC(=O)C[*:1])CCNC(=O)C[*:2])C(=O)O; Phe(2-F) = N[C@@H](Cc1ccccc1F)C(=O)O; αMeL = CC(C)C[C@](C)(N)C(=O)O; Iva = CC[C@](C)(N)C(=O)O; Dab = NCC[C@H](N)C(=O)O; Aib = CC(C)(N)C(=O)O

Legend:
Type in all cases: cell-based
GLP-1R = target: T1, GLP-1R (Homo sapiens, UniProt P43220); assay: CreLuc method (CRE-luciferase reporter), HEK293/pGM-CREB-L-Luc/GLP-1R pool; details: 6 h incubation, read-out: EC50 (pM) for each receptor GLP-1R
T1 construct: expressed in transfected cells
T1 sequence (P43220 24-463, species assumed): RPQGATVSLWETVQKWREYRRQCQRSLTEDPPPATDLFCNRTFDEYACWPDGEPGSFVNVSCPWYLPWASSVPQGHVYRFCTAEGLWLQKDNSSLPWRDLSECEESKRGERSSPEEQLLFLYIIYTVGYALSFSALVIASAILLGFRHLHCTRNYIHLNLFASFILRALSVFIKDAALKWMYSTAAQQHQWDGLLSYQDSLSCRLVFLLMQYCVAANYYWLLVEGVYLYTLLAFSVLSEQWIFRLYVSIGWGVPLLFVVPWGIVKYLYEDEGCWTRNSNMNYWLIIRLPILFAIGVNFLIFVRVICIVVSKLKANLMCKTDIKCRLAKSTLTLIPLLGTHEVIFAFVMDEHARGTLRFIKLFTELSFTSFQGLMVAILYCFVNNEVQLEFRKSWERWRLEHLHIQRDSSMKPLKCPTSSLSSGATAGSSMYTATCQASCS
Method: (§1) 1. Insulinotropic analogues can bind to the target receptor on the cell membrane, activate the cAMP response element (CRE), and initiate the expression of downstream luciferase. The expression level is positively correlated with the biological activity of the analogue being tested. After activation, luciferase substrate is added for chemiluminescence detection, and the luminescence intensity is determined to characterize the biological activity of the test compounds. Therefore, the target peptide derivatives (or polypeptide derivatives, i.e., TG1-TG94) prepared in Example 1 and Example 2 can be tested by the CreLuc method. The specific steps are as follows: The stably transfected cell lines HEK293/pGM-CREB-L-Luc/GLP-1R pool, HEK293/pGM-CREB-L-Luc/GIPR pool, and 293HEK/pGM-CREB-L-Luc/GCGR pool were constructed. […] The corresponding test cells were digested (1 min), dispersed by pipetting, and centrifuged (1000 rpm, 5 min). The culture medium was discarded, and the cells were resuspended in freestyle medium, centrifuged again, collected, and counted. The cells were then diluted to a cell density of 5 x 10^5 cells/mL and then added to the detection wells of a 384-well plate (40 µL/20,000 cells/well). Echo was used to add the corresponding analyte dilution series. The cell plate was incubated at 37°C and 5% CO2 for 6 h, then ONE-GLO (20 µL/well) was added for detection. It was kept in the dark for 3 min, then a chemiluminescent microplate reader was used for determination. The plate was read within 30 min, and the determination results were recorded. […] Table 3: EC50 values for target peptide derivatives

GIPR = target: T2, GIPR (Homo sapiens, UniProt P48546); assay: CreLuc method (CRE-luciferase reporter), HEK293/pGM-CREB-L-Luc/GIPR pool; details: 6 h incubation, read-out: EC50 (pM) for each receptor GIPR
T2 construct: expressed in transfected cells
T2 sequence (P48546 22-466): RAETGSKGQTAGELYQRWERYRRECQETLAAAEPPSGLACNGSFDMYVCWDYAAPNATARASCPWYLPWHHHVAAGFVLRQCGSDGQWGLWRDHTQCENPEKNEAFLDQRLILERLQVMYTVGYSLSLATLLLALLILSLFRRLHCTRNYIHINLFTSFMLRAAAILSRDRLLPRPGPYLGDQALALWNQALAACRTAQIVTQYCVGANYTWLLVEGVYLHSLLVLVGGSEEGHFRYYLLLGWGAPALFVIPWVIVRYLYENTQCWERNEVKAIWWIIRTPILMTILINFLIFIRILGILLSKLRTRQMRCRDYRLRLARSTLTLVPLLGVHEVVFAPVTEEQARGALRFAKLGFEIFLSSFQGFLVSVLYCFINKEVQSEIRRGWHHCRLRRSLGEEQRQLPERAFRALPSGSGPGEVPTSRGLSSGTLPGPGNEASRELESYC
Method: as §1

GCGR = target: T3, GCGR (Homo sapiens, UniProt P47871); assay: CreLuc method (CRE-luciferase reporter), 293HEK/pGM-CREB-L-Luc/GCGR pool; details: 6 h incubation, read-out: EC50 (pM) for each receptor GCGR
T3 construct: expressed in transfected cells
T3 sequence (P47871 26-477, species assumed): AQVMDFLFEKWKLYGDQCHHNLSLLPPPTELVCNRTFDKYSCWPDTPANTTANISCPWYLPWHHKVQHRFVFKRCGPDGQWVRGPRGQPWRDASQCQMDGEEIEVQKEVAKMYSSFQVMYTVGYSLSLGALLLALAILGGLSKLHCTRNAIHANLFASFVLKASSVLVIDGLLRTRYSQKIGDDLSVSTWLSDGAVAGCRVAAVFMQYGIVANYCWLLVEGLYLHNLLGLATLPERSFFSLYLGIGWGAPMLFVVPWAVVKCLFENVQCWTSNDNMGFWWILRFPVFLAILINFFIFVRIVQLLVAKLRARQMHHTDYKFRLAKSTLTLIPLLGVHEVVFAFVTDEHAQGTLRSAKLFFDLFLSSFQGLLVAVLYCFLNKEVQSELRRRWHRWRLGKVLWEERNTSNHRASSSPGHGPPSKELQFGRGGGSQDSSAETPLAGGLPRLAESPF
Method: as §1

Row | Structure (SMILES) | EC50 (GLP-1R) [pM] | EC50 (GIPR) [pM] | EC50 (GCGR) [pM]
1 | CC[C@H](C)[C@@H]1NC(=O)[C@H](Cc2ccccc2)NC(=O)[C@@H](NC(=O)C(C)(C)NC(=O)[C@H](CCC(N)=O)NC(=O)[C@H](C)NC(=O)[C@H](CCCCNC(C)=O)NC(=O)[C@H](CCCCN)NC(=O)[C@H](CC(=O)O)NC(=O)[C@H](CC(C)C)NC(=O)[C@](C)(CC(C)C)NC(=O)[C@@H](NC(=O)[C@H](CO)NC(=O)[C@H](Cc2ccc(O)cc2)NC(=O)[C@H](CC(=O)O)NC(=O)[C@H](CO)NC(=O)[C@@H](NC(=O)[C@H](Cc2ccccc2)NC(=O)[C@@H](NC(=O)CNC(=O)[C@H](CCNC(C)=O)NC(=O)C(C)(C)NC(=O)[C@@H](N)Cc2ccc(O)cc2)[C@@H](C)O)[C@@H](C)O)[C@@H](C)CC)CSCC(=O)NCCN(C(=O)CCC(=O)NCCOCCOCC(=O)NCCOCCOCC(=O)NCCCC[C@H](NC(=O)CCCCCCCCCCCCCCCCCCC(=O)O)C(=O)O)CCNC(=O)CSC[C@@H](C(=O)NCC(=O)NCC(=O)N2CCC[C@H]2C(=O)N[C@@H](CO)C(=O)N[C@@H](CO)C(=O)NCC(=O)N[C@@H](C)C(=O)N2CCC[C@H]2C(=O)N2CCC[C@H]2C(=O)N2CCC[C@H]2C(=O)N[C@@H](CO)C(N)=O)NC(=O)[C@H](CC(C)C)NC(=O)[C@H](CC(C)C)NC(=O)[C@H](Cc2ccc(O)cc2)NC(=O)[C@H](CCC(=O)O)NC1=O [TG41] (H-Y[Aib][Dab](Ac)GTFTSDYSI[αMeL]LDKK(Ac)AQ[Aib]CFIEYLLCGGPSSGAPPPS-NH2; linker 21-28 via X1) | 282 | 19.6 | 76.3
2 | CC[C@H](C)[C@@H]1NC(=O)[C@H](Cc2ccccc2)NC(=O)[C@@H](NC(=O)[C@@H](C)NC(=O)[C@H](CCC(N)=O)NC(=O)[C@H](C)NC(=O)[C@H](CCCCNC(C)=O)NC(=O)[C@H](CCCCN)NC(=O)[C@H](CC(=O)O)NC(=O)[C@H](CC(C)C)NC(=O)[C@](C)(CC(C)C)NC(=O)[C@@H](NC(=O)[C@H](CO)NC(=O)[C@H](Cc2ccc(O)cc2)NC(=O)[C@H](CC(=O)O)NC(=O)[C@H](CO)NC(=O)[C@@H](NC(=O)[C@H](Cc2ccccc2)NC(=O)[C@@H](NC(=O)CNC(=O)[C@H](CCC(N)=O)NC(=O)C(C)(C)NC(=O)[C@@H](N)Cc2ccc(O)cc2)[C@@H](C)O)[C@@H](C)O)[C@@H](C)CC)CSCC(=O)NCCN(C(=O)CCC(=O)NCCOCCOCC(=O)NCCOCCOCC(=O)NCCCC[C@H](NC(=O)CCCCCCCCCCCCCCCCCCC(=O)O)C(=O)O)CCNC(=O)CSC[C@@H](C(=O)NCC(=O)NCC(=O)N2CCC[C@H]2C(=O)N[C@@H](CO)C(=O)N[C@@H](CO)C(=O)NCC(=O)N[C@@H](C)C(=O)N2CCC[C@H]2C(=O)N2CCC[C@H]2C(=O)N2CCC[C@H]2C(=O)N[C@@H](CO)C(N)=O)NC(=O)[C@H](CC(C)C)NC(=O)[C@H](CC(C)C)NC(=O)[C@H](Cc2ccc(O)cc2)NC(=O)[C@H](CCC(=O)O)NC1=O [TG31] (H-Y[Aib]QGTFTSDYSI[αMeL]LDKK(Ac)AQ[dA]CFIEYLLCGGPSSGAPPPS-NH2; linker 21-28 via X1) | 32.7 | 11.4 | 440
3 | CC[C@H](C)[C@@H]1NC(=O)[C@H](Cc2ccccc2)NC(=O)[C@@H](NC(=O)C(C)(C)NC(=O)[C@H](CCC(N)=O)NC(=O)[C@H](C)NC(=O)[C@H](CCCCNC(C)=O)NC(=O)[C@H](CCCCN)NC(=O)[C@H](CC(=O)O)NC(=O)[C@H](CC(C)C)NC(=O)[C@](C)(CC)NC(=O)[C@@H](NC(=O)[C@H](CO)NC(=O)[C@H](Cc2ccc(O)cc2)NC(=O)[C@H](CC(=O)O)NC(=O)[C@H](CO)NC(=O)[C@@H](NC(=O)[C@H](Cc2ccccc2F)NC(=O)[C@@H](NC(=O)CNC(=O)[C@H](Cc2c[nH]cn2)NC(=O)C(C)(C)NC(=O)[C@@H](N)Cc2c[nH]cn2)[C@@H](C)O)[C@@H](C)O)[C@@H](C)CC)CSCC(=O)NCCN(C(=O)CCC(=O)NCCOCCOCC(=O)NCCOCCOCC(=O)NCCCC[C@H](NC(=O)CCCCCCCCCCCCCCCCCCC(=O)O)C(=O)O)CCNC(=O)CSC[C@@H](C(=O)NCC(=O)NCC(=O)N2CCC[C@H]2C(=O)N[C@@H](CO)C(=O)N[C@@H](CO)C(=O)NCC(=O)N[C@@H](C)C(=O)N2CCC[C@H]2C(=O)N2CCC[C@H]2C(=O)N2CCC[C@H]2C(=O)N[C@@H](CO)C(N)=O)NC(=O)[C@H](CC(C)C)NC(=O)[C@H](CC(C)C)NC(=O)[C@H](Cc2ccc(O)cc2)NC(=O)[C@H](CCC(=O)O)NC1=O [TG66] (H-H[Aib]HGT[Phe(2-F)]TSDYSI[Iva]LDKK(Ac)AQ[Aib]CFIEYLLCGGPSSGAPPPS-NH2; linker 21-28 via X1) | 435 | 34.7 | 201
4 | CC[C@H](C)[C@@H]1NC(=O)[C@H](Cc2ccccc2)NC(=O)[C@@H](NC(=O)[C@H](Cc2c[nH]cn2)NC(=O)[C@H](CCC(N)=O)NC(=O)[C@H](C)NC(=O)[C@H](CCCCNC(C)=O)NC(=O)[C@H](CCCCN)NC(=O)[C@H](CC(=O)O)NC(=O)[C@H](CC(C)C)NC(=O)[C@](C)(CC(C)C)NC(=O)[C@@H](NC(=O)[C@H](CO)NC(=O)[C@H](Cc2ccc(O)cc2)NC(=O)[C@H](CC(=O)O)NC(=O)[C@H](CO)NC(=O)[C@@H](NC(=O)[C@H](Cc2ccccc2)NC(=O)[C@@H](NC(=O)CNC(=O)[C@H](CCC(N)=O)NC(=O)C(C)(C)NC(=O)[C@@H](N)Cc2ccc(O)cc2)[C@@H](C)O)[C@@H](C)O)[C@@H](C)CC)CSCC(=O)NCCN(C(=O)CCC(=O)NCCOCCOCC(=O)NCCOCCOCC(=O)NCCCC[C@H](NC(=O)CCCCCCCCCCCCCCCCCCC(=O)O)C(=O)O)CCNC(=O)CSC[C@@H](C(=O)NCC(=O)NCC(=O)N2CCC[C@H]2C(=O)N[C@@H](CO)C(=O)N[C@@H](CO)C(=O)NCC(=O)N[C@@H](C)C(=O)N2CCC[C@H]2C(=O)N2CCC[C@H]2C(=O)N2CCC[C@H]2C(=O)N[C@@H](CO)C(N)=O)NC(=O)[C@H](CC(C)C)NC(=O)[C@H](CC(C)C)NC(=O)[C@H](Cc2ccc(O)cc2)NC(=O)[C@H](CCC(=O)O)NC1=O [TG32] (H-Y[Aib]QGTFTSDYSI[αMeL]LDKK(Ac)AQHCFIEYLLCGGPSSGAPPPS-NH2; linker 21-28 via X1) | 34 | 11.7 | 197
5 | CC[C@H](C)[C@@H]1NC(=O)[C@H](Cc2ccccc2)NC(=O)[C@@H](NC(=O)C(C)(C)NC(=O)[C@H](CCC(N)=O)NC(=O)[C@H](C)NC(=O)[C@H](CCCNC(=N)N)NC(=O)[C@H](CCCCN)NC(=O)[C@H](CC(=O)O)NC(=O)[C@H](CC(C)C)NC(=O)[C@](C)(CC(C)C)NC(=O)[C@@H](NC(=O)[C@H](CO)NC(=O)[C@H](Cc2ccc(O)cc2)NC(=O)[C@H](CC(=O)O)NC(=O)[C@H](CO)NC(=O)[C@@H](NC(=O)[C@H](Cc2ccccc2)NC(=O)[C@@H](NC(=O)CNC(=O)[C@H](CCC(N)=O)NC(=O)C(C)(C)NC(=O)[C@@H](N)Cc2ccc(O)cc2)[C@@H](C)O)[C@@H](C)O)[C@@H](C)CC)CSCC(=O)NCCN(C(=O)CCC(=O)NCCOCCOCC(=O)NCCOCCOCC(=O)NCCCC[C@H](NC(=O)CCCCCCCCCCCCCCCCCCC(=O)O)C(=O)O)CCNC(=O)CSC[C@@H](C(=O)NCC(=O)NCC(=O)N2CCC[C@H]2C(=O)N[C@@H](CO)C(=O)N[C@@H](CO)C(=O)NCC(=O)N[C@@H](C)C(=O)N2CCC[C@H]2C(=O)N2CCC[C@H]2C(=O)N2CCC[C@H]2C(=O)N[C@@H](CO)C(N)=O)NC(=O)[C@H](CC(C)C)NC(=O)[C@H](CC(C)C)NC(=O)[C@H](Cc2ccc(O)cc2)NC(=O)[C@H](CCC(=O)O)NC1=O [TG35] | 40.1 | 15.5 | 273
